For experiment [1], the system named is TC-1 tumor cells (expressing the E7 protein of the HPV-16 virus). The experiment is described as follows: Treatment of mice carrying TC1 subcutaneous tumors. It is filed as in vivo, C57B/6 mice. The conditions noted are these: TC1 tumors of 8 mm diameter, i.v. peptide plus 50 μg/ml poly I:C, second immunization seven days later. On the procedure:
The C57B/6 mice were subcutaneously injected with 5×10^5 TC-1 tumor cells (expressing the E7 protein of the HPV-16 virus). After 25 days, when the tumor reaches a diameter of 8 mm, the mice are intravenously treated with PBS (B), with peptide E7(49-57) plus 50 μg/ml poly I:C(C), or with peptide αMod-E7(49-57) plus 50 μg/ml poly I:C (D). Seven days later, the mice received a second immunization of the same immunogens. The tumor size, presented as the average of two perpendicular diameters, was measured at regular intervals using a gauge. The number of tumor-free mice relative to the total number of animals per group is included for each treatment.

The subject of experiment [2] is IFN-γ producing cells in the presence of the peptide E7(49-57). The experiment is described as follows: ELISPOT of IFN-γ producing cells against peptide E7(49-57) after immunization. In kind it is in vivo, C57BL6 mice. To be noted: 5 nmoles peptide with 50 μg poly I:C, seven days after immunization. On the procedure: C57BL6 mice were intravenously immunized with 5 nmoles of the indicated peptides in combination with 50 μg of the TLR3 ligand poly I:C. For the analysis of the IFN-γ producing cells in the presence of the peptide E7(49-57) and induced in vivo by the immunizations, the animals were sacrificed 7 days after the immunizations and ELISPOT experiments were conducted using a BD-pharmingen kit (San Diego, Calif.) as indicated above and using peptide E7(49-57) as an antigen.

For “MADVIAKIVEIVKGLIDQFTQKRAHYNIVTF [αMod-E7(49-57)]”, in experiment [1], the “number of tumor-free (cured) mice relative to the total number of mice” value is 11 of 11. Moreover, the “response against the cytotoxic peptide E7 (49-57) (ELISPOT, IFN-γ producing cells)” value in experiment [2] is on record as “induces a specific cytotoxic response”.

The values above are taken from patent US20110268757A1, “USE OF PHENOL-SOLUBLE MODULINS FOR VACCINE DEVELOPMENT” (INSTITUT PASTEUR, priority 2008, published 2011).
